Test [1] deals with apo E null mice. The test is described as follows: Protection against LDL-induced monocyte chemotactic activity by HDL from apo E null mice given oral peptides. In kind it is in vivo. The conditions noted are these: for potency compared with D-4F in enhancing HDL protective capacity: apo E null mice, added to the drinking water (FIG. 4).
Protocol: FIG. 4 illustrates the effect of oral apoA-1 peptide mimetic and apoJ peptide on HDL protective capacity. […] After 24 hrs blood was collected, plasma fractionated by FPLC and fractions containing LDL (designated as mLDL for murine LDL) and fractions containing HDL (designated as mHDL) were separately pooled and HDL protective capacity against LDL oxidation as determined by LDL-induced monocyte chemotactic activity was determined. For the assay controls the culture wells received no lipoproteins (no additions), mLDL alone (at 200 μg cholesterol/ml), or mLDL+standard normal human HDL (designated as Cont. h HDL, at 350 μg HDL cholesterol/ml).
For testing the murine HDL, mLDL together with murine HDL (+F mHDL or +J mHDL) were added to artery wall cell cultures. […] The murine HDL was used at 100 μg cholesterol/ml.
In test [2] the test system is Human aortic endothelial cells. The test is described as follows: Prevention of LDL-induced monocyte chemotactic activity by pre-treatment (pre-incubation) of artery wall cells. The following applies: pre-incubation 6 hrs, washed, then control human LDL 200 μg protein/ml overnight; relative to D-4F (FIG. 2). The format is cell-based. The method, then:
FIG. 2 illustrates a comparison of the effect of D-4F with the effect of D-J336 on the prevention of LDL induced monocyte chemotactic activity in a pre-incubation. Human aortic endothelial cells were pre-incubated with D-J336 or D-4F at 4, 2, and 1 μg/ml for DJ336 or 100, 50, 25, and 12.5 μg/ml for D-4F for 6 hrs. The cultures were then washed and were incubated with medium alone (no addition), or with control human LDL (200 μg protein/ml), or with control human LDL+control human HDL (350 μg HDL protein/ml) as assay controls. The wells that were pre-treated with peptides received the control human LDL at 200 μg protein/ml. Following overnight incubation, the supernatants were assayed for monocyte chemotactic activity.

Test [3] deals with apo E null mice. As to the kind of experiment: LDL susceptibility to oxidation: ability of LDL from apoE null mice given oral peptides to induce monocyte chemotactic activity. The format is in vivo. The conditions noted are these: added to the drinking water, 24 hrs (FIG. 5). The method, then: FIG. 5 illustrates the effect of oral apo A-1 peptide mimetic and apoJ peptide on LDL susceptibility to oxidation. […] After 24 hrs blood was collected from the mice shown in FIG. 4, plasma fractionated by FPLC and fractions containing LDL (designated as mLDL for murine LDL) were pooled and LDL susceptibility to oxidation as determined by induction of monocyte chemotactic activity was determined.
Murine LDL, mLDL, from mice that received the D-4F mLDL) or those that received the apoJ peptide (J mLDL) were added to artery wall cell cultures.

Test [4] concerns PON1. The following applies: apo E null mice, added to the drinking water, 24 hrs, plasma (FIG. 7).
Protocol: After 24 hrs blood was collected and plasma was assayed for PON1 activity.
For test [5], the system named is LDL receptor null mice. As to the kind of experiment: HDL protective capacity in LDL receptor null mice given peptide in drinking water. The format is in vivo. How it is done: D-4F designated as F, or the apoJ peptide made from D amino acids (D-J336, designated as J) was added to the drinking water of LDL receptor null mice (4 per group) at 0.25 or 0.5 mg per ml of drinking water. After 24- or 48-hrs blood was collected from the mice and their HDL was isolated and tested for its ability to protect against LDL-induced monocyte chemotactic activity. Assay controls included culture wells that received no lipoproteins (no addition), or control human LDL alone (designated as LDL, 200 μg cholesterol/ml), or control LDL+control human HDL (designated as +HDL, 350 μg HDL cholesterol). For testing the mouse HDL, the control LDL was added together with mouse HDL (+F HDL or +J HDL) to artery wall cell cultures. The mouse HDL was added at 100 μg cholesterol/ml respectively.

For test [6], the system named is apo E null mice. The conditions noted are these: added to the drinking water, 24 hrs, human artery wall co-culture (FIG. 6). How it is done: FIG. 6 illustrates the effect of oral apoA-1 peptide mimetic and apoJ peptide on HDL protective capacity. […] After 24 hrs blood was collected, plasma fractionated by FPLC and fractions containing HDL (designated as mHDL) were pooled and HDL protective capacity against PAPC oxidation as determined by the induction of monocyte chemotactic activity was determined. For the assay controls the culture wells received no lipoproteins (no additions), the phospholipid PAPC at 20 μg /ml+HPODE, at 1.0 μg/ml, or PAPC+HPODE plus standard normal human HDL (at 350 μg HDL cholesterol/ml and designated as +Cont. h HDL).
For testing the murine HDL, PAPC+HPODE together with murine HDL (+F mHDL or +J mHDL) were added to artery wall cell cultures. […] The murine HDL was used at 100 μg cholesterol/ml.

Read-outs that look alike come from different tables or passages of the source.

On to Ac-LLEQLNEQFNWVSRLANLTQGE-NH2 [D-J336], for which the entries for the “potency compared with D-4F in enhancing HDL protective capacity” value in test [1] and in test [1] (listed as D-J peptide) were “as potent as D4F” and “as potent as D-4F”, respectively. Further, in test [1] (apoE null mice, peptide in drinking water, 24 hrs, murine HDL at 100 μg/ml), the “activity of murine HDL compared with normal human HDL against LDL-induced monocyte chemotactic activity” value is given as “as active as 350 μg/ml of normal human HDL”. Further, the “times more potent than D-4F in preventing LDL oxidation by artery wall cells” value in test [2] is listed as 10-25 times. Further, the entries for the “potency compared with D-4F in rendering LDL resistant to oxidation by human artery wall cells (induction of monocyte chemotactic activity)” value in test [3] and in test [3] (listed as DJ336) were “lightly more potent than D-4F” and “slightly more potent than D4F”, respectively. In addition, the “potency compared with D-4F in increasing paraoxonase activity” value in test [4] was “at least as potent as D-4F”; in test [4] (listed as DJ336), “at least as potent as D4F”. Also, in test [5] (LDL receptor null mice, 0.25 or 0.5 mg per ml drinking water, 24 or 48 hrs, mouse HDL at 100 μg/ml), the “activity of mouse HDL in preventing control LDL from inducing monocyte chemotactic activity, compared with control human HDL” value is given as “as active as 350 μg/ml of control human HDL”. Moreover, the “effectiveness compared with D4F in preventing LDL-induced monocyte chemotactic activity” value in test [5] (given orally to LDL receptor null mice (FIG. 3)) was “essentially as effective as D4F”. Moreover, the figures for the “potency compared with D-4F in causing HDL to inhibit oxidation of PAPC by HPODE (generation of monocyte chemotactic activity)” value in test [6] and in test [6] (listed as DJ336) were “as potent as D-4F” and “as potent as D4F”, respectively.

Values taken from US7638494B2, “G-type peptides to ameliorate atherosclerosis” (The Regents of the University of California, priority 2002, dated 2009).
